Assay results taken from patent US12685735B2 (Foghorn Therapeutics Inc., priority 2020, dated 2026).
Like-named read-outs stand apart in the source and are kept apart here.

Tests used:
BRM = BRM (Homo sapiens, UniProt P51531); test: ATPase catalytic activity assay of BRM (ADP-Glo); assay type: biochemical
Summary of the method: (§1)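 In vitro biochemical ATPase assay; product ADP detected after removing leftover ATP and reconverting ADP to ATP for a luciferase signal.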

BRG-1 = BRG-1 (Homo sapiens, UniProt P51532); test: ATPase catalytic activity assay of BRG-1 (ADP-Glo); assay type: biochemical; details: ATPase catalytic activity, ADP-Glo; for Emax: read-out: BRG1 Max % Inhibition
Sequence of BRG-1 (P51532 whole entry): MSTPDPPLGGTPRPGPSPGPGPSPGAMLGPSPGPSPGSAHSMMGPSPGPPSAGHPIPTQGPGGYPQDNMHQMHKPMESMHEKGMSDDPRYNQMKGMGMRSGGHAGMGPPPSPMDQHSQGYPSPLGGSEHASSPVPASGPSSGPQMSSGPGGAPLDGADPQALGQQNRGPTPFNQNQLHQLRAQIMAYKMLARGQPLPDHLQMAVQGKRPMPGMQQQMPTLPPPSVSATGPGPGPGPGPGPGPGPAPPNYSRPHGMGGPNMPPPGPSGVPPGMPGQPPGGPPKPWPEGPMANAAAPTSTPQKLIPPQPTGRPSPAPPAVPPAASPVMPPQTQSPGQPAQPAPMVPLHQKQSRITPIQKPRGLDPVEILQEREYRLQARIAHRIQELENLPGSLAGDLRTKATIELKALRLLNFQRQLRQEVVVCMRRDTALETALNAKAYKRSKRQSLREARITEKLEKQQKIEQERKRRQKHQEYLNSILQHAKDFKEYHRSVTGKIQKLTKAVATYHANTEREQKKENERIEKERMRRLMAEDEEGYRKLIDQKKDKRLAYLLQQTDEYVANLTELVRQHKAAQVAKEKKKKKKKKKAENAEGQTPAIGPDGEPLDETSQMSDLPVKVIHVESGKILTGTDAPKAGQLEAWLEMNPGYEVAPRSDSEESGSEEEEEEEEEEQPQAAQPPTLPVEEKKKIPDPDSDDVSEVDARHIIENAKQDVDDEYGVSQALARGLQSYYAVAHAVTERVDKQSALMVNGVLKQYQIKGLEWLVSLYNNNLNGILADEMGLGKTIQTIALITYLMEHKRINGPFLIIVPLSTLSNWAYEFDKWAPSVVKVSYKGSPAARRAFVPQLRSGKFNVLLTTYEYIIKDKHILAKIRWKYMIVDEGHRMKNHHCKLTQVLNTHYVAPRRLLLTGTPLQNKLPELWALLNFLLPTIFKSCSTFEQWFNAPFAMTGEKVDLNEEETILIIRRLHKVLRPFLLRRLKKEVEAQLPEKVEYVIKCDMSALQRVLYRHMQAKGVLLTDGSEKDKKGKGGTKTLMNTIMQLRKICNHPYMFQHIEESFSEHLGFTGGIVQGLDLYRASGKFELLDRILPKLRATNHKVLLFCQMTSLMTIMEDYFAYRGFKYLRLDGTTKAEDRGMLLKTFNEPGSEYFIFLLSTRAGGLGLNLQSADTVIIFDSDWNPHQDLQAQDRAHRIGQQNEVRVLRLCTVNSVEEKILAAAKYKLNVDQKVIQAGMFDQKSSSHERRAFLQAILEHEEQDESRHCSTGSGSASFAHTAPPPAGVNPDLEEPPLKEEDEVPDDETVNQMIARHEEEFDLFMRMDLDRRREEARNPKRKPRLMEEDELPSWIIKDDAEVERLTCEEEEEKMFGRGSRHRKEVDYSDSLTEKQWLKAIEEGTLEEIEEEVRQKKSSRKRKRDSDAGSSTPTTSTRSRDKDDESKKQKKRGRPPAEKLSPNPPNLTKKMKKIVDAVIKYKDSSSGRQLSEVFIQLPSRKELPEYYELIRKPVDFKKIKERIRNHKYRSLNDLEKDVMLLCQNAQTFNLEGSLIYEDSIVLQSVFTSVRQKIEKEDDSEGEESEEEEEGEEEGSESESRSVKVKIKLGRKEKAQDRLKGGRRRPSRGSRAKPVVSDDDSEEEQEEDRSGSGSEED
Summary of the method: as §1

Sequence of BRM (P51531 whole entry): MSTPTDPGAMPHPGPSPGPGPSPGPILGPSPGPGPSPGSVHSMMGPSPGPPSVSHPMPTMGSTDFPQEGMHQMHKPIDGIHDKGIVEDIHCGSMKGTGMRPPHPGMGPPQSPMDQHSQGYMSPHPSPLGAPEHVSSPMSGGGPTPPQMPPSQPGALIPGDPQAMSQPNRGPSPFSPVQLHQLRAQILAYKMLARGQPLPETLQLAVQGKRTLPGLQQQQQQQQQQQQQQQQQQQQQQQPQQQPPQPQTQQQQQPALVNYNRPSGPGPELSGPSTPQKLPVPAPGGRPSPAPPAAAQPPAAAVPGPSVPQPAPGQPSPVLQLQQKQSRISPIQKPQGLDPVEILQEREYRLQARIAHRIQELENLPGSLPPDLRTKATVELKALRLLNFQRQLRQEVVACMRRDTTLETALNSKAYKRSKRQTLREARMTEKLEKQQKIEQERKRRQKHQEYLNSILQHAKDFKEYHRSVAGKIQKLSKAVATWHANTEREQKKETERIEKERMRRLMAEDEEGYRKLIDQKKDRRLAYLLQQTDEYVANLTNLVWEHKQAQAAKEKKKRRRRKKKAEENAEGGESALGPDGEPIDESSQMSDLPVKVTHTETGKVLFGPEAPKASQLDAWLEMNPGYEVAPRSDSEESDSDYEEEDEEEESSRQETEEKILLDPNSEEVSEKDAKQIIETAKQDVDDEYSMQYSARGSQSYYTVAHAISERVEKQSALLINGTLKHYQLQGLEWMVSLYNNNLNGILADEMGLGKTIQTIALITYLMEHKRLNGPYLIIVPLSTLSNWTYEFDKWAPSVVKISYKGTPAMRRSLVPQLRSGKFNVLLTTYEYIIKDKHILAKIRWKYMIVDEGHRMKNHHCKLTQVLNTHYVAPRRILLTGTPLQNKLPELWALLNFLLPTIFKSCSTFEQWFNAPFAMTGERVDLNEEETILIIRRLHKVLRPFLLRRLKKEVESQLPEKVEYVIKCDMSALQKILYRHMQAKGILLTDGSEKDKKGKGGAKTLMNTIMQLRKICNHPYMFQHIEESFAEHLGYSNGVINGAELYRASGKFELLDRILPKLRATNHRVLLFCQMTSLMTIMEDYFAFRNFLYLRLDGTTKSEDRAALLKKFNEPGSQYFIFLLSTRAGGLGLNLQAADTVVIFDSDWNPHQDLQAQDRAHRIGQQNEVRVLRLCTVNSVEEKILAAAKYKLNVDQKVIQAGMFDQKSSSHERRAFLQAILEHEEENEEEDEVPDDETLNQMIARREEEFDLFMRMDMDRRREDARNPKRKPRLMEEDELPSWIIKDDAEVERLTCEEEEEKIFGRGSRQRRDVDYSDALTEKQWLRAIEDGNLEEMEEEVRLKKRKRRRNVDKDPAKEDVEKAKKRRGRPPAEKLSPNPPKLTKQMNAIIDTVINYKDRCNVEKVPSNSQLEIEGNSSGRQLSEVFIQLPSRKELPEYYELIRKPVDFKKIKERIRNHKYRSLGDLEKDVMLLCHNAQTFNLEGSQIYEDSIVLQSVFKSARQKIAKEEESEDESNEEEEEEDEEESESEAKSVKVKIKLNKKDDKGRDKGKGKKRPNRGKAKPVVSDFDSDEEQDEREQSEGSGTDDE

Row | BRM Max % Inhibition (BRM) [%] | IC50 (BRM; read-out: BRM IC50 (μM)*) [µM] | IC50 (BRG-1; read-out: BRG1 IC50 (μM)*) [µM] | Emax (BRG-1) [%] | BRM Max % Inhibition (BRM; 30 nM BRM, 400 μM ATP) [%] | IC50 (BRM; 30 nM BRM, 400 μM ATP, read-out: BRM IC50 (μM)*) [µM] | IC50 (BRG-1; 30 nM BRG-1, 400 μM ATP, read-out: BRG1 IC50 (μM)*) [µM] | Emax (BRG-1; 30 nM BRG-1, 400 μM ATP) [%] | Compound | IC50 (BRM; BRM IC50 (μM)*) [µM] | IC50 (BRG-1; BRG1 IC50 (μM)*) [µM]
1 | >95 | < 0.1 | 0.1 to 1 | > 95 |  |  |  |  | C[C@@]1(C#N)COCc2ccc(C(=O)NCC(=O)Nc3nc(-c4cccc(C(F)F)c4)cs3)cc21 [Compound 398, (R)-4-cyano-N-(2-((4-(3-(difluoromethyl)phenyl)thiazol-2-yl)amino)-2-oxoethyl)-4-methylisochromane-6-carboxamide] |  | 
2 | >95 | < 0.1 | 0.1 to 1 | > 95 |  |  |  |  | C[C@@H]1CN(c2cccc(-c3csc(NC(=O)CNC(=O)c4ccc5c(c4)C(C#N)(CO)COC5)n3)c2)C[C@H](C)O1 (stereo partly drawn) [Compound 374, 4-cyano-N-(2-((4-(3-((cis)-2,6-dimethylmorpholino)phenyl)thiazol-2-yl)amino)-2-oxoethyl)-4-(hydroxymethyl)isochromane-6-carboxamide] |  | 
3 | >95 | < 0.1 | 0.1 to 1 | > 95 |  |  |  |  | COc1cccc(-c2csc(NC(=O)CNC(=O)c3ccc4c(c3)[C@](C)(C#N)COC4)n2)n1 [Compound 397, (R)-4-cyano-N-(2-((4-(6-methoxypyridin-2-yl)thiazol-2-yl)amino)-2-oxoethyl)-4-methylisochromane-6-carboxamide] |  | 
4 | >95 | < 0.1 | 0.1 to 1 | > 95 |  |  |  |  | COC(=O)N1CCC[C@@H](c2csc(NC(=O)CNC(=O)c3ccc4c(c3)[C@](C)(C#N)COC4)n2)C1 [Compound 355, methyl (R)-3-(2-(2-((R)-4-cyano-4-methylisochromane-6-carboxamido)acetamido)thiazol-4-yl)piperidine-1-carboxylate] |  | 
5 | >95 | < 0.1 | < 0.1 | > 95 |  |  |  |  | C[C@@]1(C#N)COCc2ccc(C(=O)NCC(=O)Nc3nc(-c4cccc([C@@H]5CC5(F)F)c4)cs3)cc21 [Compound 388, (R)-4-cyano-N-(2-((4-(3-((S)-2,2-difluorocyclopropyl)phenyl)thiazol-2-yl)amino)-2-oxoethyl)-4-methylisochromane-6-carboxamide] |  | 
6 |  |  |  |  | >95 | < 0.1 | 0.1 to 1 | > 95 | C[C@@H]1CN(c2cccc(-c3csc(NC(=O)CNC(=O)c4cccc(C5(C(F)F)COC5)c4)n3)c2)C[C@H](C)O1 [Compound 419, 3-(3-(difluoromethyl)oxetan-3-yl)-N-(2-((4-(3-((cis)-2,6-dimethylmorpholino)phenyl)thiazol-2-yl)amino)-2-oxoethyl)benzamide] |  | 
7 | >95 | < 0.1 | < 0.1 | > 95 |  |  |  |  | C[C@@]1(C#N)COCc2ccc(C(=O)NCC(=O)Nc3nc(-c4cc(F)cc(C5CCO5)c4)cs3)cc21 (stereo partly drawn) [Compound 316, (R)-4-cyano-N-(2-((4-(3-fluoro-5-(oxetan-2-yl)phenyl)thiazol-2-yl)amino)-2-oxoethyl)-4-methylisochromane-6-carboxamide] |  | 
8 | >90 | 0.1 to 1 | > 5 | > 90 |  |  |  |  | COc1cccc(-c2csc(NC(=O)CNC(=O)c3cc(OC)c4c(c3)[C@](C)(C#N)COC4)n2)c1 [Compound 335, (R)-4-cyano-8-methoxy-N-(2-((4-(3-methoxyphenyl)thiazol-2-yl)amino)-2-oxoethyl)-4-methylisochromane-6-carboxamide] |  | 

More lines, now with the values behind:

Row | Compound | BRM Max % Inhibition (BRM) [%] | IC50 (BRM; read-out: BRM IC50 (μM)*) [µM] | IC50 (BRG-1; read-out: BRG1 IC50 (μM)*) [µM] | Emax (BRG-1) [%] | BRM Max % Inhibition (BRM; 30 nM BRM, 400 μM ATP) [%] | IC50 (BRM; 30 nM BRM, 400 μM ATP, read-out: BRM IC50 (μM)*) [µM] | IC50 (BRG-1; 30 nM BRG-1, 400 μM ATP, read-out: BRG1 IC50 (μM)*) [µM] | Emax (BRG-1; 30 nM BRG-1, 400 μM ATP) [%] | IC50 (BRM; BRM IC50 (μM)*) [µM] | IC50 (BRG-1; BRG1 IC50 (μM)*) [µM]
9 | Cc1cncc(-c2cccc(-c3csc(NC(=O)CNC(=O)c4ccc5c(c4)[C@@](C)(CO)CC5)n3)n2)n1 [Compound 164, (S)-3-(hydroxymethyl)-3-methyl-N-(2-((4-(6-(6-methylpyrazin-2-yl)pyridin-2-yl)thiazol-2-yl)amino)-2-oxoethyl)-2,3-dihydro-1H-indene-5-carboxamide] | >60 | 0.1 to 1 | > 5 | < 30 |  |  |  |  |  | 
10 | Cc1ccc(C(=O)NCC(=O)Nc2nc(-c3cccc(N4C[C@@H](C)O[C@@H](C)C4)n3)cs2)cc1C(C)(C)CO [Compound 237, N-(2-((4-(6-((cis)-2,6-dimethylmorpholino)pyridin-2-yl)thiazol-2-yl)amino)-2-oxoethyl)-3-(1-hydroxy-2-methylpropan-2-yl)-4-methylbenzamide] | >95 | < 0.1 | 0.1 to 1 | > 90 |  |  |  |  |  | 
11 | CCOC(=O)N1CCC[C@H](c2csc(NC(=O)CNC(=O)c3ccc4c(c3)C(C)(F)COC4)n2)C1 (stereo in doubt) [Compound 284, ethyl (S)-3-(2-(2-((R)-4-fluoro-4-methylisochromane-6-carboxamido)acetamido)thiazol-4-yl)piperidine-1-carboxylate] | >95 | < 0.1 | 0.1 to 1 | > 95 |  |  |  |  |  | 
12 | C[C@@H]1CN(c2cccc(-c3csc(NC(=O)CNC(=O)c4ccc5c(c4)S(=O)(=O)CCC5)n3)c2)C[C@H](C)O1 [Compound 396, N-(2-((4-(3-((cis)-2,6-dimethylmorpholino)phenyl)thiazol-2-yl)amino)-2-oxoethyl)thiochromane-7-carboxamide 1,1-dioxide] | >90 | 0.1 to 1 | 1 to 5 | > 90 |  |  |  |  |  | 
13 | C[C@@H]1CN(c2cccc(-c3csc(NC(=O)CNC(=O)c4ccc5c(c4)[C@@H](CO)CC5)n3)n2)C[C@H](C)O1 [Compound 161, (3S)-N-[2-[[4-[6-[(cis)-2,6-dimethylmorpholin-4-yl]-2-pyridyl]thiazol-2-yl]amino]-2-oxo-ethyl]-3-(hydroxymethyl)indane-5-carboxamide] | >95 | < 0.1 | 0.1 to 1 | > 80 |  |  |  |  |  | 
14 | Cc1nccc(-c2cccc(-c3csc(NC(=O)CNC(=O)c4cccc(C(C)(C)CO)c4)n3)n2)n1 [Compound 222, 3-(2-hydroxy-1,1-dimethyl-ethyl)-N-[2-[[4-[6-(2-methylpyrimidin-4-yl)-2-pyridyl]thiazol-2-yl]amino]-2-oxo-ethyl]benzamide] | >95 | < 0.1 | 0.1 to 1 | > 80 |  |  |  |  |  | 
15 | C[C@@H]1CN(c2cccc(-c3csc(NC(=O)CNC(=O)c4cccc([C@]5(F)C[C@@H](F)C5)c4)n3)n2)C[C@H](C)O1 [Compound 357, 3-((1S,3S)-1,3-difluorocyclobutyl)-N-(2-((4-(6-((cis)-2,6-dimethylmorpholino)pyridin-2-yl)thiazol-2-yl)amino)-2-oxoethyl)benzamide] | >90 | 0.1 to 1 | 0.1 to 1 | > 90 |  |  |  |  |  | 
16 | C[C@@H]1CN(c2cccc(-c3csc(NC(=O)CNC(=O)c4cccc([C@]5(F)C[C@@H](O)C5)c4)n3)c2)C[C@H](C)O1 [Compound 151, N-(2-((4-(3-((cis)-2,6-dimethylmorpholino)phenyl)thiazol-2-yl)amino)-2-oxoethyl)-3-((1s,3s)-1-fluoro-3-hydroxycyclobutyl)benzamide] | >95 | < 0.1 | 0.1 to 1 | > 95 |  |  |  |  |  | 
17 | CC(=O)N(C)c1cc(-c2cccc(-c3csc(NC(=O)CNC(=O)c4cccc(C(C)(C)CN)c4)n3)c2)ccn1 [Compound 56, 3-(1-amino-2-methylpropan-2-yl)-N-(2-((4-(3-(2-(N-methylacetamido)pyridin-4-yl)phenyl)thiazol-2-yl)amino)-2-oxoethyl)benzamide] | >90 | 0.1 to 1 | 1 to 5 | > 70 |  |  |  |  |  | 
18 | CC(C)S(=O)(=O)c1cccc(C(=O)NCC(=O)Nc2nc(-c3cccc(-c4cccc(Cl)c4)c3)cs2)c1 [Compound 28, N-(2-((4-(3′-chloro-[1,1′-biphenyl]-3-yl)thiazol-2-yl)amino)-2-oxoethyl)-3-(isopropylsulfonyl)benzamide] | >80 |  |  |  |  |  |  |  | 0.1 to 1 | 1 to 5
19 | C[C@@H]1CN(c2cccc(-c3csc(NC(=O)CNC(=O)c4ccc5c(c4)[C@@](C)(CO)CC5)n3)n2)C[C@H](C)O1 [Compound 224, (3S)-N-[2-[[4-[6-[(cis)-2,6-dimethylmorpholin-4-yl]-2-pyridyl]thiazol-2-yl]amino]-2-oxo-ethyl]-3-(hydroxymethyl)-3-methyl-indane-5-carboxamide] | >95 | < 0.1 | 0.1 to 1 | > 95 |  |  |  |  |  | 
20 | CN1CCCc2ccc(C(=O)NCC(=O)Nc3nc(-c4cccc(-c5ccncc5)c4)cs3)cc2S1(=O)=O [Compound 131, 2-methyl-1,1-dioxo-N-[2-oxo-2-[[4-[3-(4-pyridyl)phenyl]thiazol-2-yl]amino]ethyl]-4,5-dihydro-3H-1,2-benzothiazepine-8-carboxamide] | >95 | < 0.1 | 0.1 to 1 | > 70 |  |  |  |  |  | 
21 | CC(C)(CN)c1cccc(C(=O)NCC(=O)Nc2nc(-c3cccc(-c4ccnc(CO)c4)c3)cs2)c1 [Compound 60, 3-(1-amino-2-methylpropan-2-yl)-N-(2-((4-(3-(2-(hydroxymethyl)pyridin-4-yl)phenyl)thiazol-2-yl)amino)-2-oxoethyl)benzamide] | >95 | < 0.1 | 0.1 to 1 | > 80 |  |  |  |  |  | 
22 | Cc1ccc(C(=O)NCC(=O)Nc2nc(-c3cccc(-c4ccn(C)n4)c3)cs2)cc1S(=O)(=O)C(C)C [Compound 46, 3-(isopropylsulfonyl)-4-methyl-N-(2-((4-(3-(1-methyl-1H-pyrazol-3-yl)phenyl)thiazol-2-yl)amino)-2-oxoethyl)benzamide] | >95 | 0.1 to 1 | 1 to 5 | > 60 |  |  |  |  |  | 
